For 9 molecules, IC50 results are on record in patent US8497286B2, “Organic compounds” (Novartis AG, priority 2007, dated 2013).

Each structure is given as a SMILES string.

recombinant human renin, sequence (P00797 67-406): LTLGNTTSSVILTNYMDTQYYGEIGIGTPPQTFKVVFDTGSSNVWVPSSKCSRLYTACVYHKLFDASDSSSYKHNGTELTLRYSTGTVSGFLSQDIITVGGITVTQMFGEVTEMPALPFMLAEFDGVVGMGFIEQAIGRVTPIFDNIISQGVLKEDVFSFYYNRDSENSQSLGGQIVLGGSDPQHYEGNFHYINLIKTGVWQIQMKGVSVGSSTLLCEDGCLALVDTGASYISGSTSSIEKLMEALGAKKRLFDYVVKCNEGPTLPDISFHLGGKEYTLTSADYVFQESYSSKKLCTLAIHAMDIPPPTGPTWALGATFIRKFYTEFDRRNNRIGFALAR

The target of the test is recombinant human renin (Homo sapiens (Human), UniProt P00797). Briefly: Renin inhibitory activity in vitro, FRET assay (item 2). The format is biochemical. The conditions noted are these: recombinant human renin 0.5 nM, 2 h at 37° C., pH 7.4, peptide substrate 4 μM. How it is done:
Inter alia the following in vitro tests may be used: • 1) Recombinant human renin (expressed in Chinese Hamster Ovary cells and purified using standard methods) at 7.5 nM concentration is incubated with test compound at various concentrations for 1 h at RT in 0.1 M Tris-HCl buffer, pH 7.4, containing 0.05 M NaCl, 0.5 mM EDTA and 0.05% CHAPS. Synthetic peptide substrate […] is added to a final concentration of 2 μM and increase in fluorescence is recorded at an excitation wave-length of 350 nm and at an emission wave-length of 500 nm in a microplate spectro-fluorimeter. IC50 values are calculated from percentage of inhibition of renin activity as a function of test compound concentration (Fluorescence Resonance Energy Transfer, FRET, assay). […] Synthetic peptide substrate […] is added to a final concentration of 4 μM and increase in fluorescence is recorded at an excitation wave-length of 340 nm and at an emission wave-length of 485 nm in a microplate spectro-fluorimeter. IC50 values are calculated from percentage of inhibition of renin activity as a function of test compound concentration (Fluorescence Resonance Energy Transfer, FRET, assay). […] The enzyme reaction is stopped by adding an excess of a blocking inhibitor. The product of the reaction is separated by capillary electrophoresis and quantified by spectrophotometric measurement at […] wave-length. IC50 values are calculated from percentage of inhibition of renin activity as a function of test compound concentration. […] The enzyme reaction is stopped by adding an excess of a blocking inhibitor. The product of the reaction is separated by capillary electrophoresis and quantified by spectrophotometric measurement at […] wave-length. IC50 values are calculated from percentage of inhibition of renin activity as a function of test compound concentration. […] Renin inhibitory activity was assessed in vitro by the method as outlined above in item 2).
Consider `CCOC[C@@H](NC(=O)[C@@H]1CNC[C@H](C(=O)N(c2ccc(C(C)C)cn2)C2CC2)C1)C1CCCCC1` [Example 2], for which the concentration for half-maximal inhibition (IC50) turned out to be 3 nM. `CCOC[C@H](NC(=O)[C@@H]1CNC[C@H](C(=O)N(c2cc(OCC)c(CC)cn2)C2CC2)[C@@H]1O)C(C)C` [Example 18]: the IC50 stood at 0.6 nM. On to `CCOC[C@@H](CC(C)C)NC(=O)[C@@H]1CNC[C@H](C(=O)N(c2ccc(C(C)C)cn2)C2CC2)C1` [Example 1], for which the IC50 was determined as 0.9 nM. On to `CCOC[C@@H](CC(C)C)NC(=O)[C@@H]1CNC[C@H](C(=O)N(CC(C)C)c2cc(OCCCOC)c(C(C)C)cn2)C1` [Example 3], for which the half-maximal inhibitory concentration (IC50) worked out at 0.6 nM.

As to `CCOC[C@H](NC(=O)[C@@H]1CNC[C@H](C(=O)N(c2ccc(C(C)C)cn2)C2CC2)[C@@H]1O)C(C)C` [Example 16], the IC50 is 2.5 nM. For `CCOC[C@@H](CC(C)C)NC(=O)[C@@H]1CNC[C@H](C(=O)N(c2cc(OCC)c(CC)cn2)C2CC2)[C@@H]1O` [Example 14] the value was 0.3 nM; for `CCOC[C@@H](CC(C)C)NC(=O)[C@@H]1CNC[C@H](C(=O)N(CC(C)C)c2cc(OCCCO)c(C(C)C)cn2)[C@@H]1O` [Example 15], 6 nM; for `COC[C@H]1CC[C@H](NC(=O)[C@@H]2CNC[C@H](C(=O)N(c3cc(OC)c(C(C)C)cn3)C3CC3)[C@@H]2O)CC1` [Example 17], 9 nM.

Regarding `CCOC[C@@H](CC(C)C)NC(=O)[C@@H]1CNC[C@H](C(=O)N(c2cc(OC)c(C(C)C)cn2)C2CC2)[C@@H]1O` [Example 13], the 50% inhibitory concentration (IC50) came out at 0.8 nM.

Usually IC50 stands for the concentration needed to halve the response being measured.
